Patent publication US3985742A, “Process for preparing 3-hydroxymethyl cephalosporins” (priority 1975, dated 1976)
Entries after “also recorded” stand apart in the source; their conditions may differ. Where a name gives a salt, the structure may show the parent alone. Read-outs that look alike come from different tables or passages of the source.

How the values were obtained:
[1] = relative biopotency of blocked intermediate; conditions: starting material: disodium salt of 842A
[2] = system: Pseudomonas stutzeri MB-1231; assay: disc zone bioassay of derivatives; type: cell-based; conditions: Stutzerimonas stutzeri, MB1231, 100γ/ml; read-out: disc zone size
Excerpt: (§1) Bioassay: the disc zone sizes in the following table are expressed in mm. for 100γ/ml of antibiotic.
Bioassay: the disc zone sizes in the following table are expressed in mm. for equal concentrations of antibiotic.
(§2) Bioassay: The disc zone sizes in the following table are expressed in mm. for equal concentrations of antibiotic.

Vibrio percolans MB-1272 = assay: disc-plate bioassay using Vibrio percolans; conditions: Comamonas terrigena, MB1272, read-out: disc zone size, 5γ/ml
Escherichia coli W-MB-60 [3] = assay: disc zone bioassay of derivatives; type: cell-based; conditions: WMB60, 100γ/ml, read-out: disc zone size
Excerpt: as §1, §2

[4] = system: several strains of bacteria; assay: bioactivity, summary; type: cell-based
[5] = isoelectric point and pH stability; type: physicochemical; conditions: for stability: pH 1.5
gram-positive bacteria = assay: in vitro growth inhibition, summary; type: cell-based; conditions: S. aureus, Sarcina lutea, B. subtilis
Proteus morganii 356 = assay: bacterial inactivation; conditions: washed bacterial cells, 4 h
Procedure: (§3) These cultures are: Escherichia coli 236, Proteus morganii 251, Proteus morganii 356 and Proteus mirabilis 241. […] In conducting the assay, individual mixtures of the organisms and one of the antibiotics were sampled after four hours incubation and assayed for residual antibiotic activity. The procedure is the same assay method as described above against Alcaligenes faecalis MB-9 and A. viscosus MB-12.

Proteus morganii 251 = assay: bacterial inactivation; conditions: washed bacterial cells, 4 h
Procedure: as §3

Escherichia coli 236 = assay: bacterial inactivation; conditions: 4 hours; assayed on B. subtilis (MB-964)
Procedure: as §3

Proteus mirabilis 241 = assay: bacterial inactivation; conditions: washed bacterial cells, 4 h
Procedure: as §3

[6] = system: gram-negative and gram-positive infections; assay: in vivo protection, summary statements; set-up: species or system mice; conditions: for protection against infection, oral: given orally; for in vivo activity / protection spectrum: mouse
Procedure: (§4) Methods: The method employed in this characterization is as follows: Female white Swiss mice, average weight 20-23 grams, were infected intraperitoneally with 3-20 times the number of organisms calculated to be lethal for 50% of the infected control animals (3-20 LD50 doses). At the time of infection and again 6 hours later, therapy was given by the designated route. Controls of the virulence of the culture and the toxicity of the antibiotic for uninfected mice were included in the tests. Seven days after infection the test was considered complete and the amount of the antibiotic (I) that would be required to protect 50% of the infected and treated animals was calculated by the method of Knudsen and Curtis; J. Amer. Stat. Assoc. Vol. 42: page 282 (1947).
The method employed in these studies is the same as described above with regard to the in vivo characterization of 810A.

[7] = system: cephalosporinases and penicillinase; assay: resistance to enzymatic degradation / bacterial inactivation, summary statements
[8] = system: Alcaligenes faecalis MB-9; assay: bacterial inactivation by washed bacterial cells; conditions: 4 hour; assayed on B. subtilis (MB-964); start 4 mg/ml
[9] = blood appearance and urinary excretion; type: in vivo, mice; conditions: for appearance in blood / excretion: in vivo
gram-negative bacteria = assay: in vitro growth inhibition, summary; type: cell-based
[10] = system: Alcaligenes viscosus MB-12; assay: bacterial inactivation by washed bacterial cells; conditions: 4 hour; assayed on B. subtilis (MB-964); start 4 mg/ml
bacteria = assay: bactericidal action and development of resistance
[11] = toxicity in uninfected mice; conditions: mouse, in vivo
Procedure: as §4

Sarcina lutea = assay: disc-plate agar diffusion, antibacterial spectrum; type: cell-based; conditions: Micrococcus luteus; 192 μg/ml; 25 °C; 7 mm = no zone; read-out: Inhibition Zone Diameter
Brucella bronchiseptica = assay: microbe, parasite or virus in culture; type: cell-based; conditions: Bordetella bronchiseptica, read-out: Inhibition Zone Diameter
[12] = system: Staphylococcus aureus (Streptomycin-Streptothricin-resistant); assay: disc-plate agar diffusion, antibacterial spectrum; type: cell-based; conditions: read-out: Inhibition Zone Diameter
[13] = system: Escherichia coli, Pleocidin-resistant; assay: cross-resistance, disc-plate agar diffusion; type: cell-based; conditions: read-out: Inhibition Zone Diameter
[14] = system: Escherichia coli, Chlortetracycline-resistant; assay: microbe, parasite or virus in culture; type: cell-based; conditions: read-out: Inhibition Zone Diameter
Pseudomonas aeruginosa = assay: disc-plate agar diffusion, antibacterial spectrum; type: cell-based; conditions: 192 μg/ml, 25 °C, 7 mm = no zone, read-out: Inhibition Zone Diameter
Staphylococcus aureus = assay: disc-plate agar diffusion, antibacterial spectrum; type: cell-based; conditions: 192 μg/ml, 25 °C, 7 mm = no zone, read-out: Inhibition Zone Diameter
[15] = system: Escherichia coli, Chloramphenicol-resistant; assay: cross-resistance, disc-plate agar diffusion; type: cell-based; conditions: read-out: Inhibition Zone Diameter
[16] = system: Escherichia coli, Neomycin-resistant; assay: cross-resistance, disc-plate agar diffusion; type: cell-based; conditions: read-out: Inhibition Zone Diameter
[17] = system: Escherichia coli, Streptomycin-resistant; assay: cross-resistance, disc-plate agar diffusion; type: cell-based; conditions: read-out: Inhibition Zone Diameter
[18] = system: Escherichia coli, Grisein-resistant; assay: cross-resistance, disc-plate agar diffusion; type: cell-based; conditions: read-out: Inhibition Zone Diameter
Streptococcus faecalis = assay: disc-plate agar diffusion, antibacterial spectrum; type: cell-based; conditions: Enterococcus faecalis; 192 μg/ml; 37 °C; 7 mm = no zone; read-out: Inhibition Zone Diameter
Escherichia coli W-MB-60 [19] = assay: special effects spectrum, disc-plate agar diffusion; type: cell-based; conditions: WMB60, 192 μg/ml, read-out: Inhibition Zone Diameter
[20] = system: Escherichia coli, Viomycin-resistant; assay: cross-resistance, disc-plate agar diffusion; type: cell-based; conditions: read-out: Inhibition Zone Diameter
Vibrio percolans = assay: disc-plate agar diffusion, antibacterial spectrum; type: cell-based; conditions: Comamonas terrigena; 192 μg/ml; 27 °C; 7 mm = no zone; read-out: Inhibition Zone Diameter
Alcaligenes faecalis = assay: disc-plate agar diffusion, antibacterial spectrum; type: cell-based; conditions: 192 μg/ml, 37 °C, 7 mm = no zone, read-out: Inhibition Zone Diameter
Serratia marcescens = assay: disc-plate agar diffusion, antibacterial spectrum; type: cell-based; conditions: 192 μg/ml, 25 °C, 7 mm = no zone, read-out: Inhibition Zone Diameter
[21] = system: Escherichia coli, Polymyxin-resistant; assay: cross-resistance, disc-plate agar diffusion; type: cell-based; conditions: read-out: Inhibition Zone Diameter

CO[C@@]1(NC(=O)CCC[C@@H](NC(=O)OC(C)(C)C)C(=O)O)C(=O)N2C(C(=O)O)=C(COC(N)=O)CS[C@@H]21 [7β-(D-5-N-tertiary-butoxycarbonylamino-5-carboxyvaleramido)-3-(carbamoyloxymethyl)-7-methoxy-3-cephem-4-carboxylic acid]
biopotency relative to starting material [1]: one-tenth the biopotency of the starting material

CO[C@@]1(NC(=O)CCC[C@@H](N)C(=O)O)C(=O)N2C(C(=O)O)=C(CN=[N+]=[N-])CS[C@@H]21 [7β-(D-5-amino-5-carboxyvaleramido)-3-(azidomethyl)-7-methoxy-3-cephem-4-carboxylic acid]
zone of inhibition at 100 µg/mL [2]: 20 mm
zone of inhibition at 5 µg/mL (Vibrio percolans MB-1272): 16 mm
zone of inhibition at 100 µg/mL (Escherichia coli W-MB-60 [3]): 21 mm
bioactivity [4]: possessed bioactivity against several strains of bacteria

CO[C@@]1(NC(=O)CCC[C@@H](N)C(=O)O)C(=O)N2C(C(=O)O)=C(COC(N)=O)CS[C@@H]21 [Example 842A]
apparent isoelectric point ([5]; amphoteric compound): ~3.5 pH
stability [5]: stable
stability ([5]; listed as Antibiotic 842A): relatively stable
growth inhibition (gram-positive bacteria): inhibits the growth of the following gram-positive bacteria
percent inactivation (Proteus morganii 356): 69%
percent inactivation (Proteus morganii 251): 80%
percent inactivation (Escherichia coli 236): 38%
percent inactivation (Proteus mirabilis 241): 5%
protection against infection, oral [6]: protects against infections due to Paracolobactrum arizonae 3270, Proteus vulgaris 1810, and Salmonella schottmuelleri 3010
in vivo activity / protection spectrum ([6]; listed as Antibiotic 842A): protects against infection with three species of Proteus, two of Salmonella, one strain of Escherichia coli, two of Klebsiella and also against Paracolobactrum arizonae, Aerobacter aerogenes, Pasteurella multocida and Diplococcus pneumoniae 2400; also recorded: effectiveness against the following gram-negative bacteria: Escherichia coli, Proteus vulgaris, Proteus mirabilis, Proteus morganii, Salmonella schottmuelleri, Klebsiella pneumoniae AD, Klebsiella pneumoniae B, and Paracolobactrum arizonae
resistance to enzymatic degradation / inactivation ([7]; listed as Antibiotic 842A): greater resistance to cephalosporinases; also recorded: more resistant to enzymatic degradation than cephalosporin C; also recorded: more stable than the latter against certain microorganisms; also recorded: more resistant than cephalosporin C to inactivation by A. faecalis, A. viscosus, Escherichia coli 236, Proteus morganii 251, Proteus morganii 236 and Proteus mirabilis 241
Percent Inactivation After Incubation With Washed Bacterial Cells [8]: 0%
appearance in blood / excretion ([9]; mouse): rapidly excreted in the urine
appearance in blood / excretion ([9]; mouse, listed as Antibiotic 842A): appears rapidly in the blood
dose excreted at 4 h ([9]; mouse, urine, sc, within four hours after administration, read-out: eliminated/recovered in the urine): ~79%
eliminated/recovered in the urine ([9]; within four hours after administration, 240 min, listed as Antibiotic 842A, 240 min): approximately 80%
activity against Salmonella (gram-negative bacteria): exhibits activity against Salmonella schottmuelleri 3010, S. gallinarum and S. typhosa
growth inhibition (gram-negative bacteria; in vitro, E. coli, P. vulgaris, A. faecalis, B. bronchiseptica, S. gallinarum, V. percolans, X. vesicatoria): inhibits the growth of the following gram-negative bacteria
Percent Inactivation After Incubation With Washed Bacterial Cells [10]: 54.4%
bactericidal action (bacteria): bactericidal
development of resistance (bacteria): resistance to it develops slowly

COC(=Cc1ccc(OS(=O)(=O)O)cc1)C(=O)OCC1=C(C(=O)O)N2C(=O)[C@](NC(=O)CCC[C@@H](N)C(=O)O)(OC)[C@H]2SC1 [Ic, 7β-(D-5-amino-5-carboxyvaleramido)-3-(α-methoxy-p-sulfooxycinnamoyloxymethyl)-7-methoxy-3-cephem-4-carboxylic acid]
protection against infection, oral [6]: protects against infections due to Proteus vulgaris
in vivo activity / protection spectrum [6]: when administered intraperitoneally it is effective against a variety of gram-negative and gram-positive infections
resistance to enzymatic degradation / inactivation ([7]; listed as 7β-(D-5-amino-5-carboxyvaleramido)-3-(α-methyoxy-p-sulfooxycinnamoyloxymethyl)-7): greater resistance to cephalosporinases than cephalothin; also recorded: more resistant to enzymatic degradation than cephalosporin C
toxicity [11]: low order of toxicity in mice
bactericidal action (bacteria): bactericidal

CO[C@@]1(NC(=O)CCC[C@@H](N)C(=O)O)C(=O)N2C(C(=O)O)=C(COC(N)=O)CS[C@@H]21 [Sodium Salt]
zone of inhibition at 192 µg/mL (Sarcina lutea): 9 mm
zone of inhibition at 192 µg/mL (Brucella bronchiseptica): 26 mm
zone of inhibition at 192 µg/mL [12]: 10 mm
zone of inhibition at 192 µg/mL [13]: 17 mm
zone of inhibition at 192 µg/mL [14]: 23 mm
zone of inhibition at 192 µg/mL (Pseudomonas aeruginosa): 7 mm
zone of inhibition at 192 µg/mL (Staphylococcus aureus): 7 mm
zone of inhibition at 192 µg/mL [15]: 16 mm
zone of inhibition at 192 µg/mL [16]: 17 mm
zone of inhibition at 192 µg/mL [17]: 16 mm
zone of inhibition at 192 µg/mL [18]: 16 mm
zone of inhibition at 192 µg/mL (Streptococcus faecalis): 7 mm
zone of inhibition at 192 µg/mL (Escherichia coli W-MB-60 [19]; 0.1 M phosphate buffer pH 5, 25 °C): 15 mm
zone of inhibition at 192 µg/mL (Escherichia coli W-MB-60 [19]; 0.1 M phosphate buffer pH 7, 25 °C): 25 mm
zone of inhibition at 192 µg/mL [20]: 30 mm
zone of inhibition at 192 µg/mL (Vibrio percolans): 38 mm
zone of inhibition at 192 µg/mL (Alcaligenes faecalis): 7 mm
zone of inhibition at 192 µg/mL (Serratia marcescens): 7 mm
zone of inhibition at 192 µg/mL [21]: 7 mm
